Like-named read-outs stand apart in the source and are kept apart here.
System: Chlamydomonas reinhardtii
Assay: 8-point dose response assay (0.25-30 μM)
Format: cell-based
Design: reference not given here
Conditions: for Dose Response Assay 0.25 μM: 0.25 μM compound; for Dose Response Assay 0.625 μM: 0.625 μM compound; for Dose Response Assay 2.5 μM: 2.5 μM compound; for Dose Response Assay 5 μM: 5 μM compound; for Dose Response Assay 10 μM: 10 μM compound; for Dose Response Assay 15 μM: 15 μM compound; for Dose Response Assay 30 μM: 30 μM compound
Procedure: A large scale in vivo high throughput screen (HTS) was performed to identify small compounds that stimulate lipid production and accumulation using the model organism Chlamydomonas reinhardtii. The HTS employed a 384-well microplate format in which cells were allowed to grow in the presence of the test compounds at 10 μM final concentration for 72 hours.
The screening library included 43,736 compounds (ChemBridge, Corp). […] A sub-set of compounds were retested using an 8-point dose response assay (0.25-30 μM). Compounds were further assessed visually using a Nikon Ti-inverted microscope (60×) to reconfirm lipid droplet accumulation was induced.

[1] = 8-point dose response, Nile Red lipid accumulation
[2] = 1.25 μM compound, 8-point dose response, Nile Red lipid accumulation

SMILES | Dose Response Assay 1.25 μM | Dose Response Assay 0.25 μM [1] | Dose Response Assay 0.625 μM [1] | Dose Response Assay 2.5 μM [1] | Dose Response Assay 5 μM [1] | Dose Response Assay 10 μM [1] | Dose Response Assay 15 μM [1] | Dose Response Assay 30 μM [1] | Dose Response Assay 1.25 μM [2]
Fc1ccc(CN2CCN(c3ccccc3Cl)CC2)cc1 [Compound 69] | 1.29 | 1.05 | 0.96 | 3.01 | 2.44 | 3.49 | 3.49 | 2.54 | –
CC(C)c1ccc(CN2CCN(C)CC2)cc1 [Compound 70] | 2.19 | 0.87 | 1.55 | 4.4 | 8.64 | 7.57 | 11.05 | 11.07 | –
COc1ccccc1N1CCN(Cc2ccc(Cl)cc2)CC1 [Compound 68] | 1.28 | 1.07 | 1.05 | 2.15 | 2.1 | 1.95 | 2.74 | 2.03 | –
Oc1ccc(Cl)cc1CN1CCN(Cc2ccccc2)CC1 [Compound 107] | 1.23 | 0.98 | 1.01 | 2.05 | 2.31 | 2.48 | 3.07 | 3.06 | –
Cc1ccc(C(=O)c2ccc(N3CCN(C)CC3)c([N+](=O)[O-])c2)cc1 [Compound 46] | – | 1.23 | 0.96 | 1.61 | 2.31 | 2.75 | 2.63 | 1.78 | 0.94
O=C(Nc1ccc(Cc2ccncc2)cc1)c1ccc([N+](=O)[O-])cc1Cl [Compound 37] | – | 1.04 | 0.97 | 1.85 | 1.93 | 1.76 | 1.16 | 1.15 | 1.39
COc1ccc(C(=O)NCCN2CCOCC2)cc1[N+](=O)[O-] [Compound 24] | – | 1.13 | 0.87 | 0.97 | 0.99 | 1.18 | 1.19 | 1.25 | 0.84
C=CCn1c(SCC(=O)O)nnc1-c1ccc([N+](=O)[O-])cc1 [Compound 25] | – | 1.15 | 1.13 | 1.02 | 1 | 1 | 1.33 | 1.34 | 0.99
Cc1cccc(N2CCN(Cc3ccc([N+](=O)[O-])cc3)CC2)c1C [Compound 74] | 0.80 | – | – | – | – | – | – | – | –
Cc1ccc(S(=O)(=O)c2ccc(-c3ccc([N+](=O)[O-])cc3)cc2)cc1 [Compound 2] | – | 0.96 | 1.01 | 0.99 | 1.1 | 1.53 | 1.34 | 2.11 | 0.94
O=C1CC(N2CCc3ccccc3C2)C(=O)N1c1ccc([N+](=O)[O-])cc1 (stereo not shown) [Compound 58] | – | 1.06 | 0.94 | 0.90 | 1.22 | 1.15 | 1.42 | 1.56 | 1.14
COc1cccc(CN2CCN(C(=O)c3cc(OC)c(OC)c(OC)c3)CC2)c1OC [Compound 101] | 1.14 | 1.03 | 1.08 | 0.88 | 1.58 | 1.04 | 1.43 | 1.75 | –
CC(=O)NC1=C(N2CCN(Cc3ccccc3)CC2)C(=O)c2ccccc2C1=O [Compound 134] | 0.93 | 0.97 | 1.06 | 1.32 | 1.77 | 1.31 | 1.97 | 2.14 | –
COc1ccc(C(=O)c2ccc(N3CCN(C)CC3)c([N+](=O)[O-])c2)cc1 [Compound 45] | – | 0.93 | 0.99 | 2.3 | 3.61 | 2.02 | 2.06 | 1.56 | 1.57
O=C(Nc1ccc([N+](=O)[O-])cc1)c1cccc(Cl)c1Cl [Compound 38] | – | 1.06 | 1.38 | 2.23 | 2.64 | 2.94 | 2.61 | 2 | 1.23
O=C(Nc1ccccc1C(=O)NCc1ccccc1)c1ccc([N+](=O)[O-])cc1 [Compound 53] | – | 1.06 | 1.38 | 1.1 | 1.42 | 1.57 | 1.61 | 2.49 | 1.13
Brc1ccc(CN2CCN(c3ccccc3)CC2)cc1 [Compound 86] | 1.69 | 0.98 | 1.01 | 2.39 | 2.29 | 2.71 | 3.38 | 3.76 | –
Cc1c(C(=O)Nc2ccccc2C(=O)NCc2ccccc2)cccc1[N+](=O)[O-] [Compound 55] | – | 1.3 | 1.77 | 2.27 | 2.23 | 2.04 | 2.26 | 2.77 | 2.01
CC(=O)c1nc2cc([N+](=O)[O-])ccc2n1Cc1ccccc1 [Compound 23] | – | 1.02 | 1 | 0.78 | 1.04 | 1.1 | 1.43 | 1.15 | 0.79
COc1ccccc1C(=O)N1CCN(C(=O)C(c2ccccc2)c2ccccc2)CC1 [Compound 120] | 0.89 | 0.91 | 0.64 | 1.12 | 1.07 | 2.15 | 3.19 | 1.02 | –
CC(=O)Nc1ccc(S(=O)(=O)Nc2cc([N+](=O)[O-])ccc2C)cc1 [Compound 18] | – | 1.01 | 0.97 | 1.13 | 1.17 | 1.19 | 1.31 | 1.29 | 0.89
O=C(Nc1ccc([N+](=O)[O-])cc1)c1ccccc1Cl [Compound 11] | – | 1.02 | 1.12 | 0.93 | 1.46 | 2.78 | 2.28 | 1.78 | 0.97
CCN1CCN(Cc2ccc(N(CC)CC)cc2)CC1 [Compound 104] | 3.96 | 1.23 | 3.68 | 5.27 | 4.04 | 2.81 | 3.28 | 3.69 | –
CCc1ccc(CN2CCN(c3ccccc3C)CC2)cc1 [Compound 84] | 1 | 0.92 | 0.89 | 2.5 | 2.05 | 1.64 | 2.19 | 1.34 | –
O=[N+]([O-])c1ccccc1CN1CCN(CC2CC3C=CC2C3)CC1 (stereo not shown) [Compound 39] | – | 1.17 | 1.13 | 1.18 | 1.18 | 0.88 | 1.57 | 1.38 | 0.99

From US10351883B2, “Compounds for increasing lipid synthesis and storage” (NUtech Ventures, priority 2015, dated 2019)
